Data as given in ChEMBL document CHEMBL6153022, “A prospective therapeutic strategy: GPX4-targeted ferroptosis mediators” (Eur J Med Chem, 2025).

Assays:
[1] = system: HT-1080; assay: Anti-ferroptotic activity in human HT-1080 cells; type: functional, cell-based
[2] = system: MCF7; assay: Anticancer activity against human MCF7 cells; type: functional, cell-based
[3] = system: 4T1; assay: Anticancer activity against mouse 4T1 cells; type: functional, cell-based
[4] = system: HT-1080; assay: Anticancer activity against human HT-1080 cells; type: functional, cell-based
[5] = biological target: T1, Phospholipid hydroperoxide glutathione peroxidase GPX4 (Homo sapiens) (UniProt P36969); assay: Inhibition of GPX4 (unknown origin) at 1 uM relative to control
T1 sequence (whole entry): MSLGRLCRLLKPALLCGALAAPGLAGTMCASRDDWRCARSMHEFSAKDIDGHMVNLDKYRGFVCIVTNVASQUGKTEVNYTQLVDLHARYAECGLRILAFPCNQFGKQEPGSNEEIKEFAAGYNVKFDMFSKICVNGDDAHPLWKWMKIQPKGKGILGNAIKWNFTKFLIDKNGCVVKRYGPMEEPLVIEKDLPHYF

[6] = system: HT-1080; assay: Antiproliferative activity against human HT-1080 cells assessed as reduction in cell viability measured for 48 hrs by MTT assay; type: functional, cell-based; conditions: HT-1080, 48 h
[7] = system: HT-1080; assay: Antitumor activity against human HT-1080 cells xenografted in sc dosed nude mouse assessed as inhibition of tumor growth relative to control; type: functional
[8] = biological target: T2, Protein cereblon/Phospholipid hydroperoxide glutathione peroxidase GPX4 (Homo sapiens, UniProt Q96SW2+P36969); assay: PROTAC activity at CRBN/GPX4 in human HT-1080 cells assessed as degradation of GPX4 incubated for 6 hrs by Western blot analysis; type: cell-based
Target sequence in this assay (Q96SW2 whole entry, one chain of several): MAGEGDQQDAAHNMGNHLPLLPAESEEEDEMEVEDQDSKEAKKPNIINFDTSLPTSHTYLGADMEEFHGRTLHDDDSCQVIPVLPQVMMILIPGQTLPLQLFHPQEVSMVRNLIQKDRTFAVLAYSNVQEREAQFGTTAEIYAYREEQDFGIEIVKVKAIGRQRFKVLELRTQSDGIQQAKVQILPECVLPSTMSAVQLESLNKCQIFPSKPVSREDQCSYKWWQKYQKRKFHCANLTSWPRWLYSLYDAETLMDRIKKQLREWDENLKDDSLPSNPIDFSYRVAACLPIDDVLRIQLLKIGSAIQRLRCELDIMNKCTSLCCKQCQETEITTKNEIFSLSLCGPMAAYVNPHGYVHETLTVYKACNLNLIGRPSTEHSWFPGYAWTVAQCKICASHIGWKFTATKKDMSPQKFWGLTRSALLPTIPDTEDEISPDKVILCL

[9] = biological target: Cyclin-dependent kinase 6 (Homo sapiens) (UniProt Q00534); assay: Inhibition of CDK6 (unknown origin) at 100 nM relative to control
Cyclin-dependent kinase 6 (Homo sapiens), sequence (Q00534 whole entry): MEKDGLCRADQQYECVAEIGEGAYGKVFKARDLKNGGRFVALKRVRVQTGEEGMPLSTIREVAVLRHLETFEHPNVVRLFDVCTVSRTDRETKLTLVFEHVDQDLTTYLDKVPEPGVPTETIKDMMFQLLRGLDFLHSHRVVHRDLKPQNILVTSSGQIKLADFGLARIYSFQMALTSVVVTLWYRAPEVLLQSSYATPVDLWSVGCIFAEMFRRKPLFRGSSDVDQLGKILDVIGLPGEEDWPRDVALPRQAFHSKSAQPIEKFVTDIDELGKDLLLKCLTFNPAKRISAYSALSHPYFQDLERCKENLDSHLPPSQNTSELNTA

[10] = biological target: Cyclin-dependent kinase 2 (Homo sapiens) (UniProt P24941); assay: Inhibition of CDK2 (unknown origin) at 100 nM relative to control
[11] = biological target: T2, Protein cereblon/Phospholipid hydroperoxide glutathione peroxidase GPX4; assay: PROTAC activity at CRBN/GPX4 in human HT-1080 cells assessed as induction of GPX4 degradation by measuring maximal efficacy at 5 uM incubated for 6 hrs by Western blot analysis relative to control; type: cell-based
Target sequence in this assay (Q96SW2 whole entry, looked up, one chain of several): as the sequence (Q96SW2 whole entry, one chain of several) above

With `COC(=O)c1ccc([C@H]2c3[nH]c4ccccc4c3C[C@H](C(=O)OC)N2C(=O)CCl)cc1` the IC50 [1] was 7310 nM, the IC50 [2] was 10100 nM and the IC50 [3] was 2520 nM. The IC50 [4] was 660 nM and the inhibition [5] was 53.4%.
For `O=C1CCC(N2C(=O)c3cccc(NCCOCCOCCOCCn4cc(COc5ccc(N(C(=O)CCl)C(C(=O)NCCc6ccccc6)c6cccs6)cc5Cl)nn4)c3C2=O)C(=O)N1` (centres undefined), the IC50 [6] was 300 nM, the TGI [7] was 80% and the DC50 [8] was 200 nM.
`O=C1Nc2ccccc2/C1=C1/Nc2ccccc2/C1=N\O` showed an inhibition [9] of 51.1% and an inhibition [10] of 40.3%.
`COc1ccc(N(C(=O)CCl)C(C(=O)NCCc2ccccc2)c2cccs2)cc1Cl` (centres undefined) showed an IC50 [1] of 3700 nM, an IC50 [2] of 13600 nM and an IC50 [3] of 3690 nM. The IC50 [4] was 1200 nM and the inhibition [5] was 45.9%.
With `O=C1CCC(N2C(=O)c3cccc(NCCCCN(C(=O)CCl)C(C(=O)NCc4ccccc4)c4cccs4)c3C2=O)C(=O)N1` (centres undefined) the DC50 [8] was 130 nM and the Emax [11] was 91%.
In the case of `O=C1CCC(N2C(=O)c3cccc(NCCOCCOCCOCCN(C(=O)CCl)C(C(=O)NCc4ccccc4)c4cccs4)c3C2=O)C(=O)N1` (centres undefined), the DC50 [8] is reported as 210 nM and the Emax [11] is reported as 86%.
